Article PMC11359040, “Long-Circulating and Brain-Targeted Liposomes Loaded with Isoliquiritigenin: Formation, Characterization, Pharmacokinetics, and Distribution” (Pharmaceutics, 2024)

Test: Concentration of free isoliquiritigenin in saturated aqueous phase by HPLC
Assay type: physicochemical
Procedure: A total of 100 μL of ISL-LP solution was added to 900 μL of methanol and then subjected to vortex shaking for 10 min to disrupt the liposome structure. Following centrifugation at a speed of 13,000 rpm and a temperature of 4 °C for 10 min, 100 μL of the supernatant was diluted with methanol and then filtered through 0.22 μm membranes. Subsequently, 15 μL of the solution was injected into a high-performance liquid chromatography system (HPLC, Agilent 1100, Santa Clara, CA, USA) to detect the concentration of ISL according to the method previously reported. Before these steps, we quantified the concentration of free isoliquiritigenin in the saturated aqueous phase by HPLC. […] The drug loading (DL) and EE of ISL-LP were calculated according to Equations (1) and (2):EE (%) = (Wloaded/Wadded) × 100%(1) DL (%) = (Wloaded/Wtotal) × 100%(2) where Wloaded represents the amount of ISL loaded, Wadded denotes the weight of ISL added, and Wtotal signifies the weight of liposomes.

O=C(/C=C/c1ccc(O)cc1)c1ccc(O)cc1O [isoliquiritigenin, Isoliquiritigenin]
concentration of free isoliquiritigenin in the saturated aqueous phase: below the detection limit
